Read-outs that look alike come from different tables or passages of the source.
How the values were obtained:
[1] = system: HeLa cervix carcinoma cells; test: Cytostatic assay, HeLa; type: cell-based, human
Procedure: (§1) To each well of a 96-well microtiter plate were added 5-7.5×10^4 cells and a given amount of the test compound. The cells were allowed to proliferate for 48 h to 96 h (depending on the nature of the cell line) at 37° C. in a humidified CO2-controlled atmosphere. At the end of the incubation period, the cells were counted in a Coulter Counter (Coulter Electronics Ltd, Harpenden Herts, United Kingdom).

CEM cells = test: Cytostatic assay, CEM; type: cell-based; settings: for Ratio (tumor cell selectivity): ratio IC50 HeLa / IC50 CEM, Table 7
Procedure: as §1

[2] = system: HT29 colorectal carcinoma cells; test: Cytostatic assay, HT29; type: cell-based; settings: Homo sapiens, HT-29; Table 3
Procedure: as §1

PLC/PRF/5 hepatoma cells = test: Cytostatic assay, PLC/PRF/5; type: cell-based; settings: Homo sapiens, Table 4
Procedure: as §1

[3] = system: FM3A mammary carcinoma cells; test: Cytostatic assay, FM3A; type: cell-based, murine; settings: Mus musculus, Table 3
Procedure: as §1

[4] = system: DU145 (UZ) prostate cancer cells; test: Cytostatic assay, DU145 (UZ); type: cell-based; settings: Homo sapiens, DU-145; Table 4
Procedure: as §1

[5] = system: Caki-1 kidney carcinoma cells; test: Cytostatic assay, Caki-1; type: cell-based; settings: Homo sapiens, Table 3
Procedure: as §1

[6] = system: PC-3 (UZ) prostate cancer cells; test: Cytostatic assay, PC-3 (UZ); type: cell-based; settings: Table 4
Procedure: as §1

[7] = system: 22Rv1 (UZ) prostate cancer cells; test: Cytostatic assay, 22Rv1 (UZ); type: cell-based; settings: Homo sapiens, Table 4
Procedure: as §1

[8] = system: THP-1, human monocytic cells; test: Cytostatic assay, THP-1; type: cell-based; settings: Table 2
Procedure: as §1

[9] = system: MCF-7 mammary carcinoma cells; test: Cytostatic assay, MCF-7; type: cell-based; settings: Homo sapiens, MCF7; Table 3
Procedure: as §1

[10] = system: OST TK- osteosarcoma cells; test: Cytostatic assay, OST TK-; type: cell-based; settings: Homo sapiens; Table 3
Procedure: as §1

C8166 cells = test: Cytostatic assay, C8166; type: cell-based; settings: Homo sapiens, Table 2
Procedure: as §1

HepG2C3A hepatoma cells = test: Cytostatic assay, HepG2C3A; type: cell-based; settings: Homo sapiens, HepG2/C3A; Table 4
Procedure: as §1

[11] = system: U937, human monocytic cells; test: Cytostatic assay, U937; type: cell-based; settings: U-937, Table 2
Procedure: as §1

[12] = system: PNT1A (UZ) prostate cells; test: Cytostatic assay, PNT1A (UZ); type: cell-based; settings: Homo sapiens, Table 4
Procedure: as §1

[13] = system: 293T embryonic kidney cells; test: Cytostatic assay, 293T; type: cell-based; settings: Homo sapiens, HEK-293T; Table 3
Procedure: as §1

[14] = system: LNCaP (UZ) prostate cancer cells; test: Cytostatic assay, LNCaP (UZ); type: cell-based; settings: Homo sapiens, Table 4
Procedure: as §1

Molt4/C8 cells = test: Cytostatic assay, Molt4/C8; type: cell-based; settings: Table 2
Procedure: as §1

[15] = system: HEL embryonic lung fibroblast cells; test: Cytostatic assay, HEL; type: cell-based; settings: Homo sapiens, Table 3
Procedure: as §1

HUT-78 cells = test: Cytostatic assay, HUT-78; type: cell-based; settings: Homo sapiens, HuT78; Table 2
Procedure: as §1

Huh-7 hepatoma cells = test: Cytostatic assay, Huh-7; type: cell-based; settings: Homo sapiens, Table 4
Procedure: as §1

MT-2 cells = test: Cytostatic assay, MT-2; type: cell-based; settings: Homo sapiens, MT2; Table 2
Procedure: as §1

BPH-1 (UZ) = test: Cytostatic assay, BPH-1 (UZ); type: cell-based; settings: Homo sapiens, Table 4
Procedure: as §1

Sup T1 cells = test: Cytostatic assay, Sup T1; type: cell-based; settings: Homo sapiens, Table 2, read-out: Cytostatic activity (μM) Sup T 1
Procedure: as §1

[16] = system: Caki-2 kidney carcinoma cells; test: Cytostatic assay, Caki-2; type: cell-based; settings: Homo sapiens, Table 3
Procedure: as §1

MT-4 cells = test: Cytostatic assay, MT-4; type: cell-based; settings: Homo sapiens, MT4; Table 2
Procedure: as §1

[17] = system: HL60, human leukemia cells; test: Cytostatic assay, HL-60; type: cell-based; settings: Table 2
Procedure: as §1

[18] = system: BAEC aortic endothelial cells; test: Cytostatic assay, BAEC; type: cell-based, bovine; settings: Bos taurus, Table 3
Procedure: as §1

[19] = system: PC3 (rega) prostate cancer cells; test: Cytostatic assay, PC3 (rega); type: cell-based; settings: Table 4
Procedure: as §1

U87 glioma cells = test: Cytostatic assay, U87; type: cell-based; settings: Homo sapiens, U-87 MG; Table 3
Procedure: as §1

[20] = system: Raji, human B-lymphoma cells; test: Cytostatic assay, Raji; type: cell-based; settings: Table 2
Procedure: as §1

[21] = Table 1b, read-out: IC50 (μM) (HeLa)
[22] = Table 1b, read-out: IC50 (μM) (CEM)
[23] = Homo sapiens, Table 3, read-out: Cytostatic activity (μM) Hela
[24] = Homo sapiens, CCRF-CEM, Table 1a, read-out: IC50 μM (CEM)
[25] = Homo sapiens, CCRF-CEM, Table 2, read-out: Cytostatic activity (μM) CEM

SMILES | IC50 [1, 21] [µM] | IC50 (CEM cells; [22]) [µM] | IC50 [2] [µM] | IC50 (PLC/PRF/5 hepatoma cells) [µM] | IC50 [3] [µM] | IC50 [4] [µM] | IC50 [5] [µM] | IC50 [6] [µM] | IC50 [7] [µM] | IC50 [8] [µM] | IC50 [9] [µM] | IC50 [10] [µM] | IC50 (C8166 cells) [µM] | IC50 (HepG2C3A hepatoma cells) [µM] | IC50 [11] [µM] | IC50 [12] [µM] | IC50 [13] [µM] | IC50 [14] [µM] | IC50 (Molt4/C8 cells) [µM] | IC50 [15] [µM] | further results
CCCCSCc1cc(C(=O)OC)c(N2C(=O)c3ccccc3C2=O)s1 [TJ119, Methyl 2-phthalimido-5-(2-(butyl)sulfanylmethyl)thiophene-3-carboxylate] |  |  |  |  |  |  |  |  |  |  |  |  |  |  |  |  |  |  |  |  | IC50 ([1]; Table 1c, read-out: IC50 (μM) HeLa): 104 ± 1 µM; IC50 (CEM cells; Table 1c, read-out: IC50 (μM) CEM): 6.6 ± 3.2 µM
COC(=O)c1cc(CSc2cccc(C)c2)sc1N1C(=O)c2ccccc2C1=O [TJ54SM, Methyl 2-phthalimido-5-(2-(3-methylphenyl)sulfanylmethyl)thiophene-3-carboxylate] | 121 ± 13 | 6.9 ± 0.7 |  |  |  |  |  |  |  |  |  |  |  |  |  |  |  |  |  |  | 
COC(=O)c1c(N)sc(CCc2cc(OC)ccc2OC)c1C [TR599, 2-Amino-5-[2-(2,5-dimethoxy-phenyl)-ethyl]-4-methyl-thiophene-3-carboxylic acid methyl ester] |  |  | 47 ± 2.1 | 36 ± 2.8 | 48 ± 3.5 | 35 ± 16 | 57 ± 38 | 25 ± 5.7 | 28 ± 19 | 9 ± 0.6 | 11 ± 8.5 | 34 ± 23 | 110 ± 31 | 34 ± 22 | 68 ± 0.7 | 46 ± 2.1 | 52 ± 2.1 | 8.7 ± 4.7 | 47 ± 16 | 46 ± 3.5 | IC50 (HUT-78 cells): 21 ± 1.4 µM; IC50 (Huh-7 hepatoma cells): 52 ± 7.8 µM; IC50 (MT-2 cells): 37 ± 29 µM; IC50 (BPH-1 (UZ)): 43 ± 3.5 µM; IC50 [1, 23]: 38 ± 11 µM; IC50 (Sup T1 cells): 32 ± 15 µM; IC50 [16]: 52 ± 17 µM; IC50 (MT-4 cells): 58 ± 21 µM; IC50 (CEM cells; [24]): 44 µM; IC50 (CEM cells; [25]): 44 µM; IC50 [17]: 18 ± 4.9 µM; IC50 [18]: 52 ± 46 µM; IC50 [19]: 24 ± 12 µM; IC50 (U87 glioma cells): 41 ± 4.9 µM; IC50 [20]: 49 ± 13 µM
COC(=O)c1cc(CSc2cccc(C)c2)sc1N [TJ54P, Methyl 2-amino-5-(2-(3-methylphenyl)sulfanylmethyl)thiophene-3-carboxylate] | 108 | 4.1 ± 1.7 |  |  |  |  |  |  |  |  |  |  |  |  |  |  |  |  |  |  | IC50 ([1]; HeLa cells, Table 7, 5-arylthiomethyl-substituted 2-amino-3-carboxymethylthiophenes, read-out: IC50 (μM) HeLa): 108 µM; IC50 (CEM cells; CEM cells, Table 7, 5-arylthiomethyl-substituted 2-amino-3-carboxymethylthiophenes, read-out: IC50 (μM) CEM): 4.1 µM; Ratio (tumor cell selectivity) (CEM cells): 26
COC(=O)c1cc(CSc2ccc(C(C)C)cc2)sc1N [TJ186, Methyl 2-amino-5-((4-isopropylphenylthio)methyl)thiophene-3-carboxylate] |  |  |  |  |  |  |  |  |  |  |  |  |  |  |  |  |  |  |  |  | IC50 ([1]; Homo sapiens, HeLa cells, Table 7, 5-arylthiomethyl-substituted 2-amino-3-carboxymethylthiophenes, read-out: IC50 (μM) HeLa): 46 µM; IC50 (CEM cells; Homo sapiens, CCRF-CEM, CEM cells, Table 7, 5-arylthiomethyl-substituted 2-amino-3-carboxymethylthiophenes, read-out: IC50 (μM) CEM): 0.46 µM; Ratio (tumor cell selectivity) (CEM cells): 100
COC(=O)c1cc(-c2cc(OC)ccc2OC)sc1N [TR601, 2-Amino-5-(2,5-dimethoxy-phenyl)-thiophene-3-carboxylic acid methyl ester] |  |  | 42 | 26 ± 0.71 | 59 ± 11 | 37 ± 2.1 | 8.8 ± 3.1 | 25 | 11 ± 4.8 | 25 ± 5.7 | 44 ± 28 | 32 ± 18 | 102 ± 1.4 | 22 ± 18 | 85 ± 2.8 | 38 ± 5.7 | 43 ± 16 | 21 ± 8.5 | 28 ± 6 | 17 ± 5.7 | IC50 (HUT-78 cells): 109 ± 82 µM; IC50 (Huh-7 hepatoma cells): 49 ± 19 µM; IC50 (MT-2 cells): 14 ± 2.8 µM; IC50 (BPH-1 (UZ)): 31 µM; IC50 [1, 23]: 39 ± 9.2 µM; IC50 (Sup T1 cells): 38 ± 25 µM; IC50 [16]: 24 ± 9.2 µM; IC50 (MT-4 cells): 50 ± 25 µM; IC50 (CEM cells; [24]): 42 µM; IC50 (CEM cells; [25]): 42 ± 1.4 µM; IC50 [17]: 21 µM; IC50 [18]: 26 ± 7.1 µM; IC50 [19]: 23 ± 14 µM; IC50 (U87 glioma cells): 25 µM; IC50 [20]: 45 ± 11 µM

From US9278958B2, “Anti-cancer compounds” (KATHOLIEKE UNIVERSITEIT LEUVEN, priority 2012, dated 2016)
